Read-outs that look alike come from different tables or passages of the source.
Columns and labels:
[1] = test system: patient with late onset Tay-Sachs disease (LOTS); assay: Case study in a single patient with late onset Tay-Sachs disease: ADL, 25FWT, 6MWD, tolerability; assay type: in vivo, human; conditions: 2.7 g BID; for Composite ADL Score: baseline 0; for 25FWT: baseline 12.7
Excerpt: In this example, a case study of using 11,11-D2-linoleic acid ethyl ester to treat a single patient with late onset Tay-Sachs disease (LOTS) and the study results was reported.

[2] = human, in vivo
Procedure: Design/Methods: 11,11-D2-linoleic acid ethyl ester was administered to the patient at 2.7 g (BID) and periodic repeat assessments including baseline measurement of PK, activities of daily living (ADL), 25 foot walk time (25FWT), and 6 minute walk distance (6MWD) were made. In particular, ADLs were measured individually on a scale of 0-5 across a 12 element panel representing speech, strength, coordination, etc.

in vivo = assay: in vivo; set-up: species or system mice and rats; conditions: rat
Procedure: Single- and repeat-dose studies are conducted in mice and rats using both oral gavage and dietary administration of substituted compounds as described herein (e.g., D-PUFA and ester thereof) for up to 26 weeks. […] The NOAELs established in the 8- and 26-week studies correspond to an average consumption of the substituted compounds studied in the amount of ˜362 and ˜452 mg/kg, respectively. The high dose diets in these studies contained no natural LA. […] This is consistent with the substituted compounds as described herein (e.g., D-PUFA and ester thereof) (di-deutero linoleic acid) being, for dietary purposes, equivalent to and biologically interchangeable with normal dietary LA as a sole source of LA by the rats in this study. […] The body weights, organ weights, percent of each organ composed of PUFAs, distribution of PUFA species in each tissue, and the PUFA composition of red blood cells are not changed versus controls.

murine FRDA cell model = conditions: cited from earlier work
[3] = test system: patient with Infantile Neuroaxonal Dystrophy (INAD), mutation in both copies of the PLA2G6 gene; assay type: in vivo, human
Excerpt: (§1) A study in the fatal neurodegenerative disease, Infantile Neuroaxonal Dystrophy (INAD) was initiated in March 2017. At study onset, the subject with a genetic mutation in both copies of the PLA2G6 gene, was mostly unresponsive to stimuli and unable to perform virtually any activity. All normal development milestones previously acquired had been lost. Prognosis was that a feeding tube would be required in the near term progression of the disease. The patient received dosing of a D-PUFA (11,11-D2-linoleic acid), 1.8 g twice a day, for a six month trial under an Expanded Access (Compassionate Use) protocol. As they were unable to swallow a pill, soft gels containing the D-PUFA were placed in warm liquid (water or milk), pierced with a fork, and the active oil pressed into the liquid, which was then soaked into food or a cookie, and administered.
FIG. 1 summarizes the baseline and one year treatment status of the patient (degree of impairment: (0) for severely impaired, (+1) for moderately impaired, (+2) for mildly impaired or no impairment).
After 2 months on drug, […] regained sufficient bulbar function to terminate syringe feeding of liquids and returned to drinking from a child's sippy cup.
(§2) One month and three month plasma level of deuterated polyunsaturated fatty acid was at steady state at approximately 44% total (dietary plus modified) linoleic acid, indicating excellent uptake and absorption of a therapeutic level of drug (>˜10-15%). Deuterated arachidonic acid was observed as present in the plasma at 0.6% and 3.0% of total arachidonic acid at month one and three months; respectively.
INAD is a strictly progressive disease, only worsening with time. Stabilization of regressions and recovery of lost milestones indicated effectiveness of the test treatment in a single, severely affected INAD patient.

[4] = test system: human fibroblast FRDA model; conditions: cited from earlier work
[5] = female, human, in vivo
Excerpt: as §1, §2

murine model of FRDA = conditions: Abeti et al. 2016; cited from earlier work
H9C2 myoblasts = conditions: other oxidative stress paradigms; cited from earlier work
yeast model of FRDA = conditions: cited from earlier work

[2H]C([2H])(/C=C\CCCCC)/C=C\CCCCCCCC(=O)OCC [11,11-D2-linoleic acid ethyl ester]
disease progression [1]: Early efficacy signs of inhibition of disease progression and some regression were seen
tolerability / toxicities [1]: well tolerated with no toxicities reported
# of ADLs improved ([1]; 30 d): 6
Composite ADL Score ([1]; 30 d, 12 element panel, scale 0-5): +6
25FWT ([1]; 30 d): 12.1 s
# of ADLs improved ([1]; 120 d): 8
Composite ADL Score ([1]; 120 d): +9
25FWT ([1]; 120 d): 11.2 s
D-LA(%) D-LA + H-LA Plasma [2]: 36%
D-LA(%) D-LA + H-LA RBC [2]: 28%

[2H]C([2H])(/C=C\CCCCC)/C=C\CCCCCCCC(=O)O [11,11-D2-linoleic acid, 11,11-Dideutero-cis,cis-9,12-Octadecadienoic acid]
NOAEL at 8 weeks (in vivo): ~362 mg/kg
NOAEL at 26 weeks (in vivo): ~452 mg/kg
time to significant plasma levels and red blood cell (RBC) membrane incorporation [2]: ≤ 1 month
cell viability (murine FRDA cell model): protect cells from loss of viability
progression of disease, clinical examination ([3]; 3 months, since start of trial, n=1): no progression of disease
qualitative measures in videotaped sessions (eye tracking, responsiveness, head control, lifting, reaching and grasping) ([3]; after 6 months): improved in qualitative measures
drug related adverse events ([3]; human, in vivo): no drug related adverse events of any sort reported
safety and tolerability ([3]; human, in vivo): safe and well-tolerated
ability to grasp ([3]; parents' report at 4 months): regained ability to grasp spoon and hold
constipation ([3]; parents' report at 4 months): constipation resolved
eating ([3]; parents' report at 4 months): can eat (chew and swallow) food such as banana
responsiveness to verbal requests ([3]; parents' report at 4 months): newly responsive to verbal requests during therapy
salivation down ([3]; parents' report at 4 months): 99%
muscle strength ([3]; parents' report at 4 months, grasping and lifting rattle): better muscle strength
ability to swallow ([3]; parents' report at 4 months, vs. syringe feeding): regained ability to swallow using sipper cup
overall patient status ([3]; starting within a month of dosing until one year): the patient has improved
cell viability [4]: rescue cells from loss of viability
deuterated arachidonic acid in plasma, of total arachidonic acid ([5]; 1 month): 0.6%
deuterated arachidonic acid in plasma, of total arachidonic acid ([5]; 3 months): 3.0%

[2H]C([2H])(/C=C\CC)/C=C\C([2H])([2H])/C=C\CCCCCCCC(=O)O [D4-ALA, 11,11,14,14-Tetradeutero-cis,cis,cis-9,12,15-Octadecatrienoic acid]
lipid peroxidation (murine model of FRDA): prevent lipid peroxidation
cell viability (murine FRDA cell model): protect cells from loss of viability
protection against oxidative stress (H9C2 myoblasts): protective against oxidative stress
cell viability [4]: rescue cells from loss of viability
lipid peroxidation (yeast model of FRDA): decreased lipid peroxidation

Reference: patent publication US20210252173A1, “STABILIZED POLYUNSATURATED COMPOUNDS AND USES THEREOF” (RETROTOPE, INC., priority 2018, published 2021)
